Laboratory results as given in patent publication US11214557B2, “MAGL inhibitors” (H. Lundbeck A/S, priority 2018, dated 2022).

Experiments:
MAGL [1] = biological target: MAGL (Mus musculus (Mouse), UniProt O35678); experiment: Mouse brain proteomes from inhibitor treated mice (oral gavage, ABPP analysis); format: in vivo; settings: 5 mg/kg oral gavage, 4 h after administration, read-out: MAGL % inh. 5 mg/kg (mouse)
Description: Preparation of Mouse Brain Proteomes from Inhibitor Treated Mice
Inhibitors were administered to wild-type C57Bl/6J by oral gavage in a vehicle of polyethylene glycol.

MAGL [2] = biological target: MAGL (Homo sapiens (Human), UniProt Q99685); experiment: In vitro competitive activity-based protein profiling (human proteomes); format: biochemical; settings: human proteome; for inhibition at 1 µM: 1 μM inhibitor, read-out: MAGL % inh. 1 μM (human)
Chain of MAGL (Homo sapiens (Human), UniProt Q99685) (Q99685 whole entry): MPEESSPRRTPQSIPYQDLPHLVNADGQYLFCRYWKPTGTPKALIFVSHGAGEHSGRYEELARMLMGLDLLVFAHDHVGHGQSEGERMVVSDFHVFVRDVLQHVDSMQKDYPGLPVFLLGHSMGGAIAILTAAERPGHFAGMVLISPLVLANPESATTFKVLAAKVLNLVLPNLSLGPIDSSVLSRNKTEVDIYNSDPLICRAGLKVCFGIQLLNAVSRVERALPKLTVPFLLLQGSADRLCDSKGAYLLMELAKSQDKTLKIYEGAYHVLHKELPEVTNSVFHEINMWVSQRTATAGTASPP
Description: In Vitro Competitive Activity-Based Protein Profiling
Proteomes (mouse brain membrane fraction or cell lysates for mouse assays; human prefrontal cortex or cell membrane fractions for human assays) (50 μL, 1.0 mg/mL total protein concentration) were preincubated with varying concentrations of inhibitors at 37° C. After 30 min, FP—Rh or HT-01 (1.0 μL, 50 μM in DMSO) was added and the mixture was incubated for another 30 min at 37° C. Reactions were quenched with SDS loading buffer (15 μL—4×) and run on SDS-PAGE.

Chain of MAGL (Mus musculus (Mouse), UniProt O35678) (O35678 whole entry): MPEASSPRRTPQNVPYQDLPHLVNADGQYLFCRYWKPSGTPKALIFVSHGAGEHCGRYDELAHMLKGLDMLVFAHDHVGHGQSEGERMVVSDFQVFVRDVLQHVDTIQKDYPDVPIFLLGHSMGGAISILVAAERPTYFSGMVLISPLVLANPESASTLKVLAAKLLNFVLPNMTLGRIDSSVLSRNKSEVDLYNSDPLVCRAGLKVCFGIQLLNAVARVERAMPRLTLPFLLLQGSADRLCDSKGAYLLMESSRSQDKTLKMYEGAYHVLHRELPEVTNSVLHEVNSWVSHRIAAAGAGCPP

## Cc1ccc(CN2CCN(C(=O)OC(C(F)(F)F)C(F)(F)F)CC2)c(OC(C)(C)C(=O)O)c1Cl [Example 17, 2-(2-Chloro-6-((4-(((1,1,1,3,3,3-hexafluoropropan-2-yl)oxy)carbonyl)piperazin-1-yl)methyl)-3-methylphenoxy)-2-methylpropanoic acid]
MAGL [1]
  inhibition at 5 mg/kg: 50 to 75%
MAGL [2]
  inhibition at 1 µM: > 75%
  IC50: < 50 nM

## O=C(O)COc1cc(CN2CCN(C(=O)OC(C(F)(F)F)C(F)(F)F)CC2)cc(OC(F)(F)F)c1 [Example 44, 2-(3-((4-(((1,1,1,3,3,3-Hexafluoropropan-2-yl)oxy)carbonyl)piperazin-1-yl)methyl)-5-(trifluoromethoxy)phenoxy) acetic acid]
MAGL [2]
  inhibition at 1 µM: > 75%
  IC50: < 50 nM

## CC(C)(Oc1c(CN2CCN(C(=O)OC(C(F)(F)F)C(F)(F)F)CC2)cccc1C(F)(F)F)C(=O)O [Example 2, 2-(2-((4-(((1,1,1,3,3,3-Hexafluoropropan-2-yl)oxy)carbonyl)piperazin-1-yl)methyl)-6-(trifluoromethyl)phenoxy)-2-methylpropanoic acid]
MAGL [1]
  inhibition at 5 mg/kg: > 75%
MAGL [2]
  inhibition at 1 µM: > 75%
  IC50: < 50 nM

## CC(C)(Oc1cc(C#N)ccc1CN1CCN(C(=O)OC(C(F)(F)F)C(F)(F)F)CC1)C(=O)O [Example 26, 2-(5-Cyano-2-((4-(((1,1,1,3,3,3-hexafluoropropan-2-yl)oxy)carbonyl)piperazin-1-yl)methyl)phenoxy)-2-methylpropanoic acid]
MAGL [2]
  inhibition at 1 µM: > 75%
  IC50: < 50 nM

## CCOC(=O)OC(C)OC(=O)C(C)(C)Oc1cc(C(F)(F)F)ccc1CN1CCN(C(=O)OC(C(F)(F)F)C(F)(F)F)CC1 (stereo not drawn) [Example 12, 1,1,1,3,3,3-Hexafluoropropan-2-yl 4-(2-((1-(1-((ethoxycarbonyl)oxy)ethoxy)-2-methyl-1-oxopropan-2-yl)oxy)-4-(trifluoromethyl)benzyl)piperazine-1-carboxylate]
MAGL [2]
  inhibition at 1 µM: > 75%

## CC(C)(Oc1cc(C(F)(F)F)ccc1CN1CCN(C(=O)OC(C(F)(F)F)C(F)(F)F)CC1)C(=O)NS(=O)(=O)C1CC1 [Example 6, 1,1,1,3,3,3-Hexafluoropropan-2-yl 4-(2-((1-(cyclopropanesulfonamido)-2-methyl-1-oxopropan-2-yl)oxy)-4-(trifluoromethyl)benzyl)piperazine-1-carboxylate]
MAGL [1]
  inhibition at 5 mg/kg: 0 to 25%
MAGL [2]
  inhibition at 1 µM: > 75%
  IC50: < 50 nM

## Cc1ccc(CN2CCN(C(=O)OC(C(F)(F)F)C(F)(F)F)CC2)c(OCC(C)(C)C(=O)O)c1F [Example 48, 3-(2-Fluoro-6-((4-(((1,1,1,3,3,3-hexafluoropropan-2-yl)oxy)carbonyl)piperazin-1-yl)methyl)-3-methylphenoxy)-2,2-dimethylpropanoic acid]
MAGL [1]
  inhibition at 5 mg/kg: > 75%
MAGL [2]
  inhibition at 1 µM: > 75%
  IC50: < 50 nM

## CCOC(=O)C(C)(C)Oc1cc(C(F)(F)F)ccc1CN1CCN(C(=O)OC(C(F)(F)F)C(F)(F)F)CC1 [Example 50, 1,1,1,3,3,3-Hexafluoropropan-2-yl 4-(2-((1-ethoxy-2-methyl-1-oxopropan-2-yl)oxy)-4-(trifluoromethyl)benzyl) piperazine-1-carboxylate]
MAGL [2]
  inhibition at 1 µM: > 75%

## CC(C)(COc1cc(C(F)(F)F)ccc1CN1CCN(C(=O)OC(C(F)(F)F)C(F)(F)F)CC1)C(=O)O [Example 4, 3-(2-((4-(((1,1,1,3,3,3-Hexafluoropropan-2-yl)oxy)carbonyl)piperazin-1-yl)methyl)-5-(trifluoromethyl)phenoxy)-22-dimethylpropanoic acid]
MAGL [1]
  inhibition at 5 mg/kg: > 75%
MAGL [2]
  inhibition at 1 µM: > 75%
  IC50: < 50 nM

## CC(C)(C)C(=O)OCOC(=O)C(C)(C)Oc1cc(C(F)(F)F)ccc1CN1CCN(C(=O)OC(C(F)(F)F)C(F)(F)F)CC1 [Example 49, 1,1,1,3,3,3-Hexafluoropropan-2-yl 4-(2-((2-methyl-1-oxo-1-((pivaloyloxy)methoxy)propan-2-yl)oxy)-4-(trifluoromethyl)benzyl) piperazine-1-carboxylate]
MAGL [2]
  inhibition at 1 µM: > 75%

## CC(C)(Oc1cc(C(F)(F)F)ccc1CN1CCN(C(=O)OC(C(F)(F)F)C(F)(F)F)CC1)C(=O)O [Example 3, 2-(2-((4-(((1,1,1,3,3,3-Hexafluoropropan-2-yl)oxy)carbonyl)piperazin-1-yl)methyl)-5-(trifluoromethyl)phenoxy)-2-methylpropanoic acid]
MAGL [1]
  inhibition at 5 mg/kg: > 75%
MAGL [2]
  inhibition at 1 µM: > 75%
  IC50: < 50 nM

## C[C@@H](Oc1cc(C#N)ccc1CN1CCN(C(=O)OC(C(F)(F)F)C(F)(F)F)CC1)C(=O)O [Example 45, (R)-2-(5-Cyano-2-((4-(((1,1,1,3,3,3-hexafluoropropan-2-yl)oxy)carbonyl)piperazin-1-yl)methyl)phenoxy) propanoic acid]
MAGL [2]
  inhibition at 1 µM: > 75%

## CC(C)OC(=O)OC(C)OC(=O)C(C)(C)Oc1cc(C(F)(F)F)ccc1CN1CCN(C(=O)OC(C(F)(F)F)C(F)(F)F)CC1 (stereo not drawn) [Example 51, 1,1,1,3,3,3-Hexafluoropropan-2-yl 4-(2-((1-(1-((isopropoxycarbonyl)oxy)ethoxy)-2-methyl-1-oxopropan-2-yl)oxy)-4-(trifluoromethyl)benzyl) piperazine-1-carboxylate]
MAGL [2]
  inhibition at 1 µM: > 75%

## CC(C)(Oc1cc(CN2CCN(C(=O)OC(C(F)(F)F)C(F)(F)F)CC2)cc(C(F)(F)F)c1)C(=O)O [Example 47, 2-(3-((4-(((1,1,1,3,3,3-Hexafluoropropan-2-yl)oxy)carbonyl)piperazin-1-yl)methyl)-5-(trifluoromethyl)phenoxy)-2-methylpropanoic acid]
MAGL [2]
  inhibition at 1 µM: > 75%
  IC50: < 50 nM

## C[C@H](Oc1cc(C#N)ccc1CN1CCN(C(=O)OC(C(F)(F)F)C(F)(F)F)CC1)C(=O)O [Example 46, (S)-2-(5-Cyano-2-((4-(((1,1,1,3,3,3-hexafluoropropan-2-yl)oxy)carbonyl)piperazin-1-yl)methyl)phenoxy) propanoic acid]
MAGL [2]
  inhibition at 1 µM: > 75%

## O=C(O)COc1c(F)cccc1CN1CCN(C(=O)OC(C(F)(F)F)C(F)(F)F)CC1 [Example 11, 2-(2-Fluoro-6-((4-(((1,1,1,3,3,3-hexafluoropropan-2-yl)oxy)carbonyl)piperazin-1-yl)methyl)phenoxy)acetic acid]
MAGL [2]
  inhibition at 1 µM: 50 to 75%

## COc1ccc(OC(C)(C)C(=O)O)cc1CN1CCN(C(=O)OC(C(F)(F)F)C(F)(F)F)CC1 [Example 35, 2-(3-((4-(((1,1,1,3,3,3-Hexafluoropropan-2-yl)oxy)carbonyl)piperazin-1-yl)methyl)-4-methoxyphenoxy)-2-methylpropanoic acid]
MAGL [2]; 10 μM inhibitor, read-out: MAGL % inh. (human) @ 10 μM
  inhibition at 10 µM: > 75%

## CC(OC(=O)C(C)C)OC(=O)C(C)(C)Oc1cc(C(F)(F)F)ccc1CN1CCN(C(=O)OC(C(F)(F)F)C(F)(F)F)CC1 (stereo not drawn) [Example 13, 1,1,1,3,3,3-Hexafluoropropan-2-yl 4-(2-((1-(1-(isobutyryloxy)ethoxy)-2-methyl-1-oxopropan-2-yl)oxy)-4-(trifluoromethyl)benzyl)piperazine-1-carboxylate]
MAGL [2]
  inhibition at 1 µM: > 75%

## CC(C)(COc1cc(CN2CCN(C(=O)OC(C(F)(F)F)C(F)(F)F)CC2)cc(C(F)(F)F)c1)C(=O)O [Example 5, 3-(3-((4-(((1,1,1,3,3,3-Hexafluoropropan-2-yl)oxy)carbonyl)piperazin-1-yl)methyl)-5-(trifluoromethyl)phenoxy)-2,2-dimethylpropanoic acid]
MAGL [1]
  inhibition at 5 mg/kg: > 75%
MAGL [2]
  inhibition at 1 µM: > 75%
  IC50: < 50 nM

## CC(C)(Oc1cc(Cl)ccc1CN1CCN(C(=O)OC(C(F)(F)F)C(F)(F)F)CC1)C(=O)O [Example 1, 2-(5-Chloro-2-((4-(((1,1,1,3,3,3-hexafluoropropan-2-yl)oxy)carbonyl)piperazin-1-yl)methyl)phenoxy)-2-methylpropanoic acid]
MAGL [1]
  inhibition at 5 mg/kg: 0 to 25%
MAGL [2]
  inhibition at 1 µM: > 75%
  IC50: < 50 nM
